Measured values: publication PMC9434233, “Transmembrane helices 5 and 12 control transport dynamics, substrate affinity, and specificity in the elevator-type UapA transporter” (Genetics, 2022)

Legend:
UapA [1] = target: T1, UapA (Aspergillus nidulans, UniProt Q07307); test: [3H]-xanthine uptake in germinating conidiospores, initial rates; format: cell-based; settings: pH 6.8, 37°C; H+ symport; labelled compound; read-out: Km app
T1 construct: full-length UapA, C-terminal GFP-type functional tag kept, gpdA promoter, expressed in A. nidulans Δ7 strain lacking 7 major nucleobase transporters; homodimer

UapA [2] = target: T1, UapA; test: competition of [3H]-xanthine uptake in germinating conidiospores; format: cell-based

| Structure (SMILES) | Km (UapA [1]) [µM] | Ki (UapA [2]) [µM] |
| --- | --- | --- |
| O=c1[nH]c(=O)c2[nH]cnc2[nH]1 [XA, xanthine] | 6 |  |
| O=c1[nH]c(=O)c2c[nH]nc2[nH]1 [OX, oxypurinol] |  | 103 |
